# Measurements: patent publication EP1614416A2, “Method for treating amyloidosis” (QUEEN'S UNIVERSITY AT KINGSTON, priority 1993, dated 1994)
# Counter-ions that a name gives are not always drawn.
# Key:
# Type in all cases: in vivo, mice
# [1] = test system: AA splenic amyloid deposition; assay: Chronic amyloidosis (LPS + AEF, inflammatory stimulus maintained), oral treatment from day 7, Experiments 5 and 6
# Protocol: (§1) In the following experiments, a well-characterized mouse model of amyloidosis was used. In this in vivo system, animals receive an inflammatory stimulus and amyloid enhancing factor. For acute amyloidosis (i.e., short term amyloid deposition), the inflammatory stimulus is AgNO3. For chronic amyloidosis (ongoing amyloid deposition), the inflammatory stimulus is lipopolysaccharide (LPS). Amyloid deposition (AA amyloid) in the spleens of mice was measured with and without therapeutic treatment.
# To maintain the inflammation and the blood SAA levels, and allow amyloid to be continuously deposited for the duration of a longer term experiment, the nature of the inflammatory stimulus was changed. So as to maintain the inflammation, animals received lipopolysaccharide (LPS, 20 µg)+ AEF on day 0 and LPS was given by intraperitoneal injection every 2nd day. On day seven (7), the animals were separated into two groups as described in Experiment 4. Assessment of amyloid over the course of the experiment proceeded as described in Experiment 4. The control group (triangles) continued to deposit amyloid for the entire 17 day period. Those receiving PVS apparently stopped depositing amyloid by day 14 (open circles and dashed line). The data on day 17 represent 4 animals per group as one animal was omitted from this time period. The quantity of amyloid in this particular individual was so far removed from all other data points (treated or not, it was 21%) that it is believed that this was a statistically valid procedure. If this individual is included, the curve is represented by the dotted line and the remaining open circle. It should be pointed out that animals receiving PVS began to develop a significant diarrhea as the experiment proceeded.
# In this experiment, another sulfonated compound, ethane monosulfate was used to inhibit amyloidosis. Ethane monosulfonate, sodium salt, (EMS) is structurally the monomeric unit of PVS. Animals were given LPS + AEF as in Experiment 5, but on day seven EMS was used in the drinking water as the therapeutic agent. […]
# [2] = test system: amyloid deposition; assay: Acute amyloidosis (AgNO3 + AEF), oral sulfonated lower aliphatics, visual examination of spleen sections, Experiment 8; conditions: 50 µM in drinking water, six days; preliminary visual analysis of spleen sections
# Protocol: Acute amyloidosis was elicited in mice with AgNO3 and amyloid enhancing factor as described in Experiment 2. Twenty-four hours later, the animals were divided into a control group and six test groups. The control group was maintained on standard laboratory mouse chow and tap water ad. lib. The test groups received standard chow but their water contained 50 µM of one of the following six compounds: ethanesulfonic acid sodium salt, 2-amino-ethanesulfonic acid sodium salt (taurine), propane-1-sulfonic acid sodium salt, ethane-1,2-disulfonic acid sodium salt, propane-1,3-disulfonic acid sodium salt, or butane-1,4-disulfonic acid sodium salt. Water intake was approximately equivalent for all groups. After six days, the animals were sacrificed and their spleens were processed as described for Experiment 2. For preliminary analysis, the spleen sections were examined visually under a microscope for differences in amyloid deposition in the treated animals versus the control animals.
# [3] = Viability of animals under intraperitoneal therapy, Experiment 1
# Protocol: All animals received AgNO3 (0.5 ml, 2% solution) subcutaneously in the back, and amyloid enhancing factor (AEF) 100 µg intravenously. The preparation of amyloid enhancing factor has been described previously in Axelrad, M.A. et al. ("Further Characterization of Amyloid Enhancing Factor" Lab. Invest. 47:139-146 (1982)). The animals were divided into several groups one of which was an untreated control group which was sacrificed six days later. The remaining animals were divided into those which received poly(vinyl sulfonic acid sodium salt) (PVS) at 50 mg, 40 mg, 20 mg, or 10mg by intraperitoneal injection every 12 hours or sucrose octasulfate ammonium salt (SOA) at 73 mg or 36.5 mg every 8 hours by IP injection. Surviving animals were sacrificed on the 5th day of treatment. In all cases the PVS or SOA was dissolved in a sterile aqueous carrier.
# All control animals survived the experiment without incident. […] Animals receiving 36.5 mg of sucrose octasulfate/injection all survived. […] In all cases of animal deaths prior to the end of the experiments, the cause of death was uncontrolled intraperitoneal hemorrhage.
# Intraperitoneal injection was selected as providing a large membrane surface for ease of access to the circulating system. […]
# [4] = test system: AA amyloid deposition in mouse spleen; assay: Acute AA amyloidosis mouse model (AgNO3 + AEF), intraperitoneal treatment, Experiment 1; conditions: 36.5 mg/injection IP every 8 hours, mean ± S.E.M., n = 5, untreated 7.8, p ≤ 0.02, immunostained sections, image analysis
# Protocol: as §1
# All mice were of the CD strain (Charles Rivers, Montreal, Quebec) and weighing 25-30 g. […]
# At the termination of the experiments, the animals were sacrificed by cervical dislocation and the spleens, livers, and kidneys were fixed in 96% ethanol, 1% glacial acetic acid and 3% water as described in Lyon, A.W. et al. ("Co-deposition of Basement Membrane Components During the Induction of Murine Splenic AA Amyloid" Lab. Invest. 64:785-790 (1991)). […] The histologic sections viewed under polarized light were assessed by image analysis for the percent of spleen occupied by amyloid. In the case of the experiments with sucrose octasulfate, the tissues were immunostained with an antibody to the SAA protein (described in Lyon A.W. et al. Lab Invest. 64:785-790 (1991)) and the immunostained sections assessed by image analysis for the percent of tissue section occupied by amyloid.
structure (smiles),measurement,setting,value
"CCS(=O)(=O)O [EMS, Ethane monosulfonate, sodium salt]",course of splenic amyloid deposition (Figure 8),[1]; 6 mg/ml EMS in drinking water from day 7,stopped depositing amyloid after day 14
same,gastrointestinal side effect,[1]; EMS 2.5 or 6 mg/ml in drinking water,did not develop gastrointestinal problems
same,inhibition of chronic amyloid deposition,[1]; restated in Experiment 8 with reference to Experiment 6,has been observed to inhibit chronic amyloid deposition
same,amyloid deposition versus control animals,[2],not observed to have less amyloid deposition than control animals
"O=S(=O)([O-])CCCCS(=O)(=O)[O-].[Na+].[Na+] [butane-1,4-disulfonic acid sodium salt]",amyloid deposition versus control animals,[2],not observed to have less amyloid deposition than control animals
"O=S(=O)([O-])CCS(=O)(=O)[O-].[Na+].[Na+] [ethane-1,2-disulfonic acid sodium salt]",amyloid deposition versus control animals,[2],less amyloid deposition than control animals
"O=S(=O)([O-])CCCS(=O)(=O)[O-].[Na+].[Na+] [propane-1,3-disulfonic acid sodium salt]",amyloid deposition versus control animals,[2],less amyloid deposition than control animals
CCCS(=O)(=O)[O-].[Na+] [propane-1-sulfonic acid sodium salt],amyloid deposition versus control animals,[2],less amyloid deposition than control animals
"N.N.N.N.N.N.N.N.O=S(=O)(O)OC[C@H]1O[C@@](COS(=O)(=O)O)(O[C@H]2O[C@H](COS(=O)(=O)O)[C@@H](OS(=O)(=O)O)[C@H](OS(=O)(=O)O)[C@H]2OS(=O)(=O)O)[C@@H](OS(=O)(=O)O)[C@@H]1OS(=O)(=O)O [sucrose octasulfate, sucrose octasulfate ammonium salt]",viability of animals,[3]; 36.5 mg/injection IP every 8 hours,all survived
same,viability of animals,"[3]; 73 mg/injection IP every 8 hours, cause of death intraperitoneal hemorrhage",succumbed prior to the termination of the experiment
same,% Area Occupied by Amyloid,[4]; ammonium salt,3.2% ± 0.5%
same,% Area Occupied by Amyloid,"[4]; listed as Sucrose OctaSO4, ammonium salt",3.2 ± 0.5%
"NCCS(=O)(=O)[O-].[Na+] [taurine sodium salt, 2-amino-ethanesulfonic acid sodium salt]",amyloid deposition versus control animals,[2],not observed to have less amyloid deposition than control animals
